Experimental data as given in patent publication US20030220346A1 (priority 2003, published 2003).

Columns and labels:
5-HT1A receptor = target: T1, 5-HT1A receptor (Homo sapiens, UniProt P08908); experiment: human monoamine GPCR binding profile, 5-HT1A; conditions: at least about 30 fold to over 1500 fold lower IC50
T1 construct: expressed in transfected cells
T1 sequence (P08908 1-422): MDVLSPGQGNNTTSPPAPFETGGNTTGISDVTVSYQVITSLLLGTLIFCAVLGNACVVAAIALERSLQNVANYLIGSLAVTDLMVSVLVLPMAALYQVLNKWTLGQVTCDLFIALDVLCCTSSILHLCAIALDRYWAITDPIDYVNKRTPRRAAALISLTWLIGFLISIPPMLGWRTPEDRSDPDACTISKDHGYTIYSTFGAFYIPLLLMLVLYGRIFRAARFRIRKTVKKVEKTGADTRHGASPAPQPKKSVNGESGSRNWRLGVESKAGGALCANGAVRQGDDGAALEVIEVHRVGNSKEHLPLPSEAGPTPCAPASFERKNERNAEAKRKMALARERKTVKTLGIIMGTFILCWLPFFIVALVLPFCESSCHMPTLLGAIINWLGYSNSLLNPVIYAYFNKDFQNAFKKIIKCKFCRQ
Excerpt: (§1) As known in the art, human monoamine GPCR binding profiles were obtained using heterologously expressed cloned human GPCRs in the binding experiments. Both pKi and IC50 (nM concentration) values were obtained as well as an average value of each from at least three determinations.

D2A = target: T2, D2A (Homo sapiens, UniProt P14416); experiment: dopaminergic receptor binding, D2A; conditions: result in words
T2 construct: expressed in transfected cells
T2 sequence (P14416 whole entry): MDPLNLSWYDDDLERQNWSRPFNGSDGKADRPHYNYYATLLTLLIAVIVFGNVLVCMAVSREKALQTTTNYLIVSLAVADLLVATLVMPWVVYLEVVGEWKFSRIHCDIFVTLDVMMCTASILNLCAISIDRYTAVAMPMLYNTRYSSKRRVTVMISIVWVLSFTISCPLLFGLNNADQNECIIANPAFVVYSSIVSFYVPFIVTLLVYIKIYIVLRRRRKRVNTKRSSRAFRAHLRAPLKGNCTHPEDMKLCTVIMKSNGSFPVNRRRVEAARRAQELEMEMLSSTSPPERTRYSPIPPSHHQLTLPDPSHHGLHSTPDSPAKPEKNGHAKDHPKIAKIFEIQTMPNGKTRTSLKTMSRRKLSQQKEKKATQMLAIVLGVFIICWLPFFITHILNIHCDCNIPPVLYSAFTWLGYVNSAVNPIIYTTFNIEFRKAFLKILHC
Protocol: as §1
(§2) Dopaminergic receptors D2A, D2B, D3, and D4 were also tested.

D2B = target: T3, D2B (Homo sapiens, UniProt P14416); experiment: dopaminergic receptor binding, D2B; conditions: result in words
T3 construct: expressed in transfected cells
T3 sequence (P14416 1-414 isoform P14416-2): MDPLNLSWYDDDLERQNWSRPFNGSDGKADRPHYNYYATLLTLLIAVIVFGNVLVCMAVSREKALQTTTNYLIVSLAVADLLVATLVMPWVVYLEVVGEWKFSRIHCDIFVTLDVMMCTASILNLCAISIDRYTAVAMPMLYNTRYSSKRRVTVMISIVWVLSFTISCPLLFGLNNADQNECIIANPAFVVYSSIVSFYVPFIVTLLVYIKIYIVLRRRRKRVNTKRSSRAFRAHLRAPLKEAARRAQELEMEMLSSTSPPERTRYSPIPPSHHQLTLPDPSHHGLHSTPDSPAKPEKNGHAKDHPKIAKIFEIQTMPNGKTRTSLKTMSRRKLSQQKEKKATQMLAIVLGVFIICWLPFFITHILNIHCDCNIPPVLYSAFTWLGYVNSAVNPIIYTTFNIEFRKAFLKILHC
Protocol: as §1, §2

D3 = target: T4, D3 (Homo sapiens, UniProt P35462); experiment: dopaminergic receptor binding, D3; conditions: result in words
T4 construct: expressed in transfected cells
T4 sequence (P35462 whole entry): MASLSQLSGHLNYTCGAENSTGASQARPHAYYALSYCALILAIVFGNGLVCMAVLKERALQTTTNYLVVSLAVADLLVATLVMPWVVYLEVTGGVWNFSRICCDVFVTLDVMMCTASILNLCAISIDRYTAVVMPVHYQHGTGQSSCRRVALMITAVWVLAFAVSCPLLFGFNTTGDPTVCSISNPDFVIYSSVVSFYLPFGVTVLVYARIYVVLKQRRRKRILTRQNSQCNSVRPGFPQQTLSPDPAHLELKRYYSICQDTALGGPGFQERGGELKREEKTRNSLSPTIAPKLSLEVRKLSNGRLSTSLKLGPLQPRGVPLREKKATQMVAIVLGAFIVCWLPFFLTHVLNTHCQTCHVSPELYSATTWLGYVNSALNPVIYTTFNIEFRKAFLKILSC
Protocol: as §1, §2

Alpha 2A = target: T5, Alpha 2A (Homo sapiens, UniProt P08913); experiment: alpha-adrenergic receptor binding, Alpha 2A; conditions: result in words
T5 construct: expressed in transfected cells
T5 sequence (P08913 1-465): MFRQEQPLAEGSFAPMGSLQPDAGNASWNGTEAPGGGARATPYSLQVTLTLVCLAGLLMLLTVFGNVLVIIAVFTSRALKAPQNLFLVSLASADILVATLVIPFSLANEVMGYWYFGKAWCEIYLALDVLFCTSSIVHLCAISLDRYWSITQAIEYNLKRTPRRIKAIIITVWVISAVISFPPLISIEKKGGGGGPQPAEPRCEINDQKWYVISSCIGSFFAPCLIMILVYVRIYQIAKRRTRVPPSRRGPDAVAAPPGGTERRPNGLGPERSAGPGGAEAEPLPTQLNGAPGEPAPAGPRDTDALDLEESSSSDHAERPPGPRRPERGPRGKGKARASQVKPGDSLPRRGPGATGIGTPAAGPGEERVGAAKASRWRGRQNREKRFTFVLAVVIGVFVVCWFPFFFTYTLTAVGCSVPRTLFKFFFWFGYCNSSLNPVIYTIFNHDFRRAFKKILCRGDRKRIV
Protocol: as §1, §2

Alpha 2B = target: T6, Alpha 2B (Homo sapiens, UniProt P18089); experiment: alpha-adrenergic receptor binding, Alpha 2B; conditions: result in words
T6 construct: expressed in transfected cells
T6 sequence (P18089 1-450): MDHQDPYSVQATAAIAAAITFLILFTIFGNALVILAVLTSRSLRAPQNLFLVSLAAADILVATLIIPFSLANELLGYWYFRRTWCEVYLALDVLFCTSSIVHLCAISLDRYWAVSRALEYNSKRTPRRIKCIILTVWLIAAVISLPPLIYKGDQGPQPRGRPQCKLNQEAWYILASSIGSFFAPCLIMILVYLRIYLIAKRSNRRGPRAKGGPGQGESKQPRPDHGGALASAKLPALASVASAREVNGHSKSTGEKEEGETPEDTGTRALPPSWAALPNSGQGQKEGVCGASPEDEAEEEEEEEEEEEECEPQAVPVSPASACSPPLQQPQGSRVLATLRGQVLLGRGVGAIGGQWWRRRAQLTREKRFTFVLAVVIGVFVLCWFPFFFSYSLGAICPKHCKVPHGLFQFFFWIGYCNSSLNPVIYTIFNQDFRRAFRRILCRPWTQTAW
Protocol: as §1, §2

Alpha 2C receptor = target: T7, Alpha 2C receptor (Homo sapiens, UniProt P18825); experiment: alpha-adrenergic receptor binding, Alpha 2C; conditions: result in words
T7 construct: expressed in transfected cells
T7 sequence (P18825 1-462): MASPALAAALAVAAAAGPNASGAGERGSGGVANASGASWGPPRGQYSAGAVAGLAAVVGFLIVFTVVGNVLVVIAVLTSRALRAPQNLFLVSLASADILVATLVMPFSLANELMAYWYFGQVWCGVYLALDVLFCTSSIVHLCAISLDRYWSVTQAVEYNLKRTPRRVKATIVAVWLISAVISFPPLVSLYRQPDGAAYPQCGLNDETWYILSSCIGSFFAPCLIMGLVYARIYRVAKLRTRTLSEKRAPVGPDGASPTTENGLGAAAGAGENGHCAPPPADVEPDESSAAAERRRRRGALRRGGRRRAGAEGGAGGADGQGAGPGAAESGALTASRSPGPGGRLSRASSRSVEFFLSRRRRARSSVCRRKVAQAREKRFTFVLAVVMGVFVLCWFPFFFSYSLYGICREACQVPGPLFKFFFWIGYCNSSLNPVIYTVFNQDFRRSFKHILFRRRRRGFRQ
Protocol: as §1, §2

[1] = plasma levels of 3-OH gepirone after administration of gepirone; assay type: in vivo; conditions: human subjects administered a dose of gepirone; FIG. 2; result in words
Protocol: “Time (H)” represents time after administration.
Each sample corresponds to a 0.5 ml plasma sample, extracted with 6 ml of (2:1) (v/v) hexane:chloroform for 1 hour. After separation by centrifuge, the organic layer is transferred to a 10 ml conical tube and 90 ul of 1% formic acid is added. The tube is vortexed for 10 minutes and centrifuged for 5 minutes. About 80 ul of the formic acid layer is transferred into injection vials for HPLC/MS analysis.

[2] = cited from earlier work; for half-life: result in words

Row | selectivity for the 5-HT1A receptor compared to the 5-HT2, 5-HT6, and 5-HT7 receptors (fold lower IC50) (5-HT1A receptor) | dopaminergic binding at D2A (D2A) | dopaminergic binding at D2B (D2B) | dopaminergic binding at D3 (D3) | affinity at Alpha 2A (Alpha 2A) | affinity at Alpha 2B (Alpha 2B) | binding at the Alpha 2C receptor (Alpha 2C receptor) | SMILES | plasma levels of 3-OH gepirone [1] | half-life [2] | bioavailability ([2]; delivered orally)
1 | at least 30 fold | insignificant | insignificant | insignificant | did not display significant affinity | did not display significant affinity | weak binding | CC1(C)CC(=O)N(CCCCN2CCN(c3ncccn3)CC2)C(=O)C1O (centres unmarked) [3-OH gepirone, 4,4-Dimethyl-3-hydroxy-1-[4-[4-(2-pyrimidinyl)-1-piperazinyl]butyl]-2,6-piperidinedione] | available quickly and persists in the plasma for extended periods of time | – | –
2 | – | – | – | – | – | – | – | O=C1CC2(CCCC2)CC(=O)N1CCCCN1CCN(c2ncccn2)CC1 [buspirone] | – | very short | –
3 | – | – | – | – | – | – | – | CC1(C)CC(=O)N(CCCCN2CCN(c3ncccn3)CC2)C(=O)C1 [gepirone, 4-dimethyl-1-[4-[4-(2-pyrimidinyl)-1-piperazinyl]butyl]-2,6-piperidinedione] | – | very short | 14-18%
